Question: With `CCc1ccccc1Cc1ccccc1O[C@@H]1S[C@H](CO)[C@@H](O)[C@H](O)[C@H]1O` [Compound 58] as the compound, how does the melting point read?
Answer: 96 to 101 °C

Question: With `OC[C@H]1S[C@@H](Oc2ccc(Cl)cc2Cc2c(F)cccc2Cl)[C@H](O)[C@@H](O)[C@@H]1O` [Compound 59, 2′-(2′-chloro-6′-fluorobenzyl)-4′-chlorophenyl 5-thio-β-D-glucopyranoside] as the compound, how does the melting point read?
Answer: 183.5 to 185 °C

Question: Which melting point does the source give for `OC[C@H]1S[C@@H](Oc2ccc(Cl)cc2Cc2ccc(F)cc2F)[C@H](O)[C@@H](O)[C@@H]1O` [Compound 60, 4′-chloro-2′-(2′,4′-difluorobenzyl)phenyl 5-thio-β-D-glucopyranoside] here?
Answer: 175.5 to 177 °C

Question: Which melting point does the source give for `OC[C@H]1S[C@@H](Oc2ccc(Cl)cc2Cc2cccc(F)c2)[C@H](O)[C@@H](O)[C@@H]1O` [Compound 61, 4′-chloro-2′-(3′-fluorobenzyl)phenyl 5-thio-β-D-glucopyranoside] here?
Answer: 182 to 183 °C

Question: Which melting point does the source give for `OC[C@H]1S[C@@H](Oc2ccc(Cl)cc2Cc2cccc(Oc3ccccc3)c2)[C@H](O)[C@@H](O)[C@@H]1O` [Compound 62] here?
Answer: 124.5 to 127 °C

Question: For `CC(C)c1ccc(Cc2cc(Cl)ccc2O[C@@H]2S[C@H](CO)[C@@H](O)[C@H](O)[C@H]2O)cc1` [Compound 63, 4′-chloro-2′-(4′-isopropylbenzyl)phenyl 5-thio-β-D-glucopyranoside], which melting point is on record?
Answer: 146 to 148.5 °C

Question: For `CCc1ccc(Cc2ccc(F)cc2O[C@@H]2S[C@H](CO)[C@@H](O)[C@H](O)[C@H]2O)cc1` [Compound 64, 2′-(4′-ethylbenzyl)-5′-fluorophenyl 5-thio-β-D-glucopyranoside], which melting point is on record?
Answer: 156 to 157 °C

Question: For `COc1cc(OC)c(Cc2ccccc2O[C@@H]2S[C@H](CO)[C@@H](O)[C@H](O)[C@H]2O)c(OC)c1` [Compound 65, 2′-(2′,4′,6′-trimethoxybenzyl)phenyl 5-thio-β-D-glucopyranoside], which melting point is on record?
Answer: 100 to 105 °C

Question: With `OC[C@H]1S[C@@H](Oc2ccc(Cl)cc2Cc2c(F)c(F)cc(F)c2F)[C@H](O)[C@@H](O)[C@@H]1O` [Compound 66, 4′-chloro-2′-(2′,3′,5′,6′-tetrafluorobenzyl)phenyl 5-thio-β-D-glucopyranoside] as the compound, how does the melting point read?
Answer: 204 to 211 °C

Question: With `OC[C@H]1S[C@@H](Oc2ccc(Cl)cc2Cc2ccc(-c3ccccc3)cc2)[C@H](O)[C@@H](O)[C@@H]1O` [Compound 67, 4′-chloro-2′-(4′-phenylbenzyl)phenyl 5-thio-β-D-glucopyranoside] as the compound, how does the melting point read?
Answer: 187 to 195 °C

Question: For `OC[C@H]1S[C@@H](Oc2ccc(Cl)cc2Cc2cccc3ccccc23)[C@H](O)[C@@H](O)[C@@H]1O` [Compound 68], which melting point is on record?
Answer: 170 to 175 °C

Question: For `OC[C@H]1S[C@@H](Oc2ccc(Cl)cc2Cc2cccc(OC(F)(F)F)c2)[C@H](O)[C@@H](O)[C@@H]1O` [Compound 69, 4′-chloro-2′-(3′-trifluoromethoxybenzyl)phenyl 5-thio-β-D-glucopyranoside], which melting point is on record?
Answer: 146 to 148 °C

Question: For `OC[C@H]1S[C@@H](Oc2ccc(Cl)cc2Cc2ccc(Cl)cc2Cl)[C@H](O)[C@@H](O)[C@@H]1O` [Compound 70, 4′-chloro-2′-(2′,4′-dichlorobenzyl)phenyl 5-thio-β-D-glucopyranoside], which melting point is on record?
Answer: 172 to 174 °C

Question: Which melting point does the source give for `OC[C@H]1S[C@@H](Oc2ccc(Cl)cc2Cc2ccc3ccccc3c2)[C@H](O)[C@@H](O)[C@@H]1O` [Compound 71] here?
Answer: 192 to 194 °C

Question: Which melting point does the source give for `CCCCCOc1ccc(Cc2cc(Cl)ccc2O[C@@H]2S[C@H](CO)[C@@H](O)[C@H](O)[C@H]2O)cc1` [Compound 72, 4′-chloro-2′-(4′-pentyloxybenzyl)phenyl 5-thio-β-D-glucopyranoside] here?
Answer: 143 to 144.5 °C

Question: Which melting point does the source give for `OC[C@H]1S[C@@H](Oc2ccccc2Cc2ccc(N3CCOCC3)cc2)[C@H](O)[C@@H](O)[C@@H]1O` [Compound 73, 2′-(4′-morpholinobenzyl)phenyl 5-thio-β-D-glucopyranoside] here?
Answer: 174 to 176.5 °C

Question: For `OC[C@H]1S[C@@H](Oc2ccccc2Cc2ccc(N3CCCCC3)cc2)[C@H](O)[C@@H](O)[C@@H]1O` [Compound 74, 2′-(4′-piperidinobenzyl)phenyl 5-thio-β-D-glucopyranoside], which melting point is on record?
Answer: 156.5 to 160 °C

Question: With `CC(C)(C)c1ccc(Cc2cc(Cl)ccc2O[C@@H]2S[C@H](CO)[C@@H](O)[C@H](O)[C@H]2O)cc1` [Compound 75, 2′-(4′-t-butylbenzyl)-4′-chlorophenyl 5-thio-β-D-glucopyranoside] as the compound, how does the melting point read?
Answer: 79 to 82.5 °C

Question: For `OC[C@H]1S[C@@H](Oc2ccc(Cl)cc2Cc2cc(F)cc(C(F)(F)F)c2)[C@H](O)[C@@H](O)[C@@H]1O` [Compound 76, 4′-chloro-2′-(3′-fluoro-5′-trifluoromethylbenzyl)phenyl 5-thio-β-D-glucopyranoside], which melting point is on record?
Answer: 126 to 129 °C

Question: Which melting point does the source give for `CCc1ccc(Cc2ccc(COC(C)=O)cc2O[C@@H]2S[C@H](CO)[C@@H](O)[C@H](O)[C@H]2O)cc1` [Compound 77, 5′-(acetoxymethyl)-2′-(4′-ethylbenzyl)phenyl 5-thio-β-D-glucopyranoside] here?
Answer: 158 to 160 °C

Question: For `OC[C@H]1S[C@@H](Oc2ccc(Cl)cc2Cc2ccccc2CCc2ccccc2)[C@H](O)[C@@H](O)[C@@H]1O` [Compound 78], which melting point is on record?
Answer: 128 to 130 °C

Question: Which melting point does the source give for `OC[C@H]1S[C@@H](Oc2ccc(Cl)cc2Cc2ccccc2Cc2ccccc2)[C@H](O)[C@@H](O)[C@@H]1O` [Compound 79] here?
Answer: 150.5 to 151.5 °C

Question: For `COc1ccc(Cc2cc(Cl)ccc2O[C@@H]2S[C@H](CO)[C@@H](O)[C@H](O)[C@H]2O)c(OC)c1` [Compound 80, 4′-chloro-2′-(2′,4′-dimethoxybenzyl)phenyl 5-thio-β-D-glucopyranoside], which melting point is on record?
Answer: 195.5 to 197 °C

Question: Which melting point does the source give for `CCOc1ccccc1Cc1cc(Cl)ccc1O[C@@H]1S[C@H](CO)[C@@H](O)[C@H](O)[C@H]1O` [Compound 81, 4′-chloro-2′-(2′-ethoxybenzyl)phenyl 5-thio-β-D-glucopyranoside] here?
Answer: 196.5 to 198.5 °C

Question: With `Cc1ccccc1Cc1cc(Cl)ccc1O[C@@H]1S[C@H](CO)[C@@H](O)[C@H](O)[C@H]1O` [Compound 82, 4′-chloro-2′-(2′-methylbenzyl)phenyl 5-thio-β-D-glucopyranoside] as the compound, how does the melting point read?
Answer: 147 to 149 °C

Question: Which melting point does the source give for `COc1ccc(CNC(=O)c2c(O)cccc2O[C@@H]2S[C@H](CO)[C@@H](O)[C@H](O)[C@H]2O)cc1` [Compound 84, 3′-hydroxy-2′-(4′-methoxybenzylaminocarbonyl)phenyl 5-thio-β-D-glucopyranoside] here?
Answer: 183 to 185 °C

Question: For `NC(=O)c1ccc(Cc2ccccc2O[C@@H]2S[C@H](CO)[C@@H](O)[C@H](O)[C@H]2O)cc1` [Compound 85, 2′-(4′-carbamoylbenzyl)phenyl 5-thio-β-D-glucopyranoside], which melting point is on record?
Answer: 215.5 to 216 °C

Question: With `CN(C)C(=O)c1ccc(Cc2ccccc2O[C@@H]2S[C@H](CO)[C@@H](O)[C@H](O)[C@H]2O)cc1` [Compound 86, 2′-(4′-N,N-dimethylaminocarbonylbenzyl)phenyl 5-thio-β-D-glucopyranoside] as the compound, how does the melting point read?
Answer: 193.5 to 194 °C

Question: Which melting point does the source give for `OC[C@H]1S[C@@H](Oc2ccccc2Cc2ccc(C3CC3)cc2)[C@H](O)[C@@H](O)[C@@H]1O` [Compound 90, 2′-(4′-cyclopropylbenzyl)phenyl 5-thio-β-D-glucopyranoside] here?
Answer: 148 to 148.5 °C

Question: For `O=C(Nc1ccccc1)c1cc2ccccc2cc1O[C@@H]1S[C@H](CO)[C@@H](O)[C@H](O)[C@H]1O` [Compound 92], which melting point is on record?
Answer: 200 to 202 °C

Source: patent publication US7414072B2, “Aryl 5-thio-β-d-glucopyranoside derivatives and therapeutic agents for diabetes containing the same” (Taisho Pharmaceutical Co., Ltd., priority 2002, dated 2008)
